This is an account of results in US4845029A, “Method for the determination of sarcosine creatine or creatinine” (Boehringer Mannheim GmbH, priority 1985, dated 1989).

What all share (type): biochemical
Assay [1] concerns known sarcosine oxidase from Bacillus sp. (comparison enzyme). The assay is described as follows: KM value for sarcosine in stressing reagent a. The note with it: pH 7.9, detergent-containing. As for the experimental part:
(§1) The KM values for sarcosine (phosphate buffer; TES buffer), measured at 25° C. in various stressing reagents, are 2 to 3 mmol/litre. The Vmax is about 6 U/mg. protein. The followig Table I gives, for various preparations of the enzyme according to the present invention, the KM values for sarcosine measured at 25 and at 37° C. For comparison, there are given the corresponding values for the known Bacillus enzyme.
(§2) 0.15 mole potassium phosphate or 0.1 mole TES/KOH (pH 7.9), 8.6 mmole 2,4,6-tribromo-3-hydroxybenzoic acid, 0.8 mmole 4-aminoantipyrine, 10 μmole potassium ferrocyanide, 5 mmole sodium cholate, 0.5% Lutensol ON 50, 0.2% sodium azide, 0.5 mmole Titriplex III, 2000 U lipase, 2000 U peroxidase and 10000 U ascorbate oxidase, per liter. [Lutensol ON 50 ^R is obtained from BASF AG and is n-decanol-polyglycolether having an average of 5 ethylene glycol units per molecule i.e. CH3 -(CH2)9 -(OCH2 -CH2)5 -OH. Titriplex III is the disodium salt of ethylenediaminetetracetic acid and can be obtained from Merck.]

Assay [2] deals with sarcosine oxidase (E.C. 1.5.3.1) from Chainia purpurogena (DSM 43 156), pure enzyme. The experiment in a line: KM value for sarcosine in stressing reagent a. The conditions noted are these: pH 7.9, detergent-containing. On the procedure:
as §1, §2

Assay [3] has as its system sarcosine oxidase from Chainia purpurogena, crude extract supernatant. The assay is described as follows: KM value for sarcosine in stressing reagent a. The conditions noted are these: 37 °C, pH 7.9, detergent-containing. On the procedure: as §1, §2
In assay [4] the test system is sarcosine oxidase from Streptomyces flocculus (DSM 40 327), crude extract supernatant. The experiment in a line: KM value for sarcosine in stressing reagent a. The note with it: 37 °C, TES buffer, pH 7.9, detergent-containing. As for the experimental part:
as §1, §2

The test system of assay [5] is sarcosine oxidase according to the present invention, obtainable from Streptomycetaceae. The assay is described as follows: KM and Vmax for sarcosine. The note with it: substrate sarcosine. On the procedure: In contradistinction thereto, the KM values of the known sarcosine oxidases which are sufficiently stable for these determinations are, under these conditions, abou 16 to 20 mmol/liter.
as §1

Take `CNCC(=O)O` [sarcosine]: the Km in assay [1] (25 °C, TES buffer) came out at 20 mM; in assay [1] (25 °C, phosphate buffer), 16 mM; in assay [1] (37 °C, TES buffer) it was 20 mM; in assay [1] (37 °C, phosphate buffer) it was 18 mM; in assay [2] (25 °C, TES buffer), 2.8 mM; in assay [2] (25 °C, phosphate buffer), 2 mM. In addition, the Michaelis constant (Km) in assay [2] (37 °C, TES buffer) worked out at 3 mM; in assay [2] (37 °C, phosphate buffer), 3.5 mM; in assay [3] (TES buffer) it was 3 mM; in assay [3] (phosphate buffer), 3 mM; in assay [4], 3.5 mM. Also, the Vmax entry in assay [5] was “about 6 U/mg. protein”.

Usually Km stands for the substrate concentration at which the rate is half of its maximum.
